Experimental data as given in ChEMBL document CHEMBL4340533, “Discovery of an EGFR tyrosine kinase inhibitor from Ilex latifolia in breast cancer therapy” (Bioorg Med Chem Lett, 2019).
The source made the active and inactive calls. The rule behind the calls is not given here.

Tests used:
MDA-MB-231 [1] = assay: Induction of apoptosis in human MDA-MB-231 cells assessed as increase in cleaved caspase 3 expression at 20 to 80 ug/ml by Western blot analysis; type: functional, cell-based
MDA-MB-231 [2] = assay: Antiproliferative activity against human MDA-MB-231 cells assessed as reduction in cell viability after 24 hrs by MTT assay; type: functional, cell-based
MDA-MB-231 [3] = assay: Induction of apoptosis in human MDA-MB-231 cells assessed as early apoptotic cells at 80 ug/ml after 24 hrs by Annexin-V-FITC/propidium iodide staining based FACS analysis relative to control; type: functional
MDA-MB-231 [4] = assay: Induction of apoptosis in human MDA-MB-231 cells assessed as increase in late apoptotic cells at 20 to 40 ug/ml after 24 hrs by Annexin-V-FITC/propidium iodide staining based FACS analysis; type: functional, cell-based
MDA-MB-231 [5] = assay: Induction of apoptosis in human MDA-MB-231 cells assessed as down regulation of PARP1 expression by Western blot analysis; type: functional, cell-based
[6] = molecular target: Epidermal growth factor receptor (Homo sapiens) (UniProt P00533); assay: Inhibition of EGFR phosphorylation in human MDA-MB-231 cells by Western blot analysis; type: cell-based
Sequence of Epidermal growth factor receptor (Homo sapiens) (P00533 whole entry): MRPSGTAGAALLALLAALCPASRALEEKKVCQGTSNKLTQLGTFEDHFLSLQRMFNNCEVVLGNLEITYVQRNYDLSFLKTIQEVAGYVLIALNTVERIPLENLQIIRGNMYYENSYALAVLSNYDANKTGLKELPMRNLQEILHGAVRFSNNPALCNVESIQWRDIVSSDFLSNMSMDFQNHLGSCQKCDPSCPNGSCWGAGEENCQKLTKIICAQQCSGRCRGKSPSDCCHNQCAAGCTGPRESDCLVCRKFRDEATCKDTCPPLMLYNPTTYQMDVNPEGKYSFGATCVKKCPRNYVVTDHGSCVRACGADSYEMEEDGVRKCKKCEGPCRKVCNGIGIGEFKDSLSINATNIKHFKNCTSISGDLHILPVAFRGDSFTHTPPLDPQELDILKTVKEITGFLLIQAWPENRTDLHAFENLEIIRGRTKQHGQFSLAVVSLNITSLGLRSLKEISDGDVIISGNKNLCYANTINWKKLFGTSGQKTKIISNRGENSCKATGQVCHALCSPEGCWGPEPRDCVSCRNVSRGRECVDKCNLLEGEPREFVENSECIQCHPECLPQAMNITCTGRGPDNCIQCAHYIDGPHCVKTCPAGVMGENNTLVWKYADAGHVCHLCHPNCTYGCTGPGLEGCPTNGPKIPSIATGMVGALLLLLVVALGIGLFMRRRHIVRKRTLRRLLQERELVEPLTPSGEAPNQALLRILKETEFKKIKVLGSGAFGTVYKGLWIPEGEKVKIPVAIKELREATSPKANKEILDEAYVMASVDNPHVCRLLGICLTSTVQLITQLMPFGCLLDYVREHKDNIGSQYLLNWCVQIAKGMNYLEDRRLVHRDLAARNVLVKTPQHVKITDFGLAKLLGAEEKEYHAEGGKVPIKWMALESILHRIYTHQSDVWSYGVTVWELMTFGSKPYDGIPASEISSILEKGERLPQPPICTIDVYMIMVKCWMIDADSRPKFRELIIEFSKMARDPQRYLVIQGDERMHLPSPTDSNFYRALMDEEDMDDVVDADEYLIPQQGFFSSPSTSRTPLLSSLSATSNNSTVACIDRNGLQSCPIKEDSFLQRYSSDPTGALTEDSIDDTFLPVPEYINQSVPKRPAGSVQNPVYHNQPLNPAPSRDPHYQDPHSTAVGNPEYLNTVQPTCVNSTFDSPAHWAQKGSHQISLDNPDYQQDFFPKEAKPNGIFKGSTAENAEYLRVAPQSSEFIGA

[7] = test system: Epidermal growth factor receptor (Homo sapiens), P00533 [L858R]; assay: Inhibition of EGFR L858R mutant (unknown origin) using polyE4Y1 as substrate measured after 60 mins
Sequence of Epidermal growth factor receptor (Homo sapiens), P00533 [L858R] (P00533 whole entry L858R): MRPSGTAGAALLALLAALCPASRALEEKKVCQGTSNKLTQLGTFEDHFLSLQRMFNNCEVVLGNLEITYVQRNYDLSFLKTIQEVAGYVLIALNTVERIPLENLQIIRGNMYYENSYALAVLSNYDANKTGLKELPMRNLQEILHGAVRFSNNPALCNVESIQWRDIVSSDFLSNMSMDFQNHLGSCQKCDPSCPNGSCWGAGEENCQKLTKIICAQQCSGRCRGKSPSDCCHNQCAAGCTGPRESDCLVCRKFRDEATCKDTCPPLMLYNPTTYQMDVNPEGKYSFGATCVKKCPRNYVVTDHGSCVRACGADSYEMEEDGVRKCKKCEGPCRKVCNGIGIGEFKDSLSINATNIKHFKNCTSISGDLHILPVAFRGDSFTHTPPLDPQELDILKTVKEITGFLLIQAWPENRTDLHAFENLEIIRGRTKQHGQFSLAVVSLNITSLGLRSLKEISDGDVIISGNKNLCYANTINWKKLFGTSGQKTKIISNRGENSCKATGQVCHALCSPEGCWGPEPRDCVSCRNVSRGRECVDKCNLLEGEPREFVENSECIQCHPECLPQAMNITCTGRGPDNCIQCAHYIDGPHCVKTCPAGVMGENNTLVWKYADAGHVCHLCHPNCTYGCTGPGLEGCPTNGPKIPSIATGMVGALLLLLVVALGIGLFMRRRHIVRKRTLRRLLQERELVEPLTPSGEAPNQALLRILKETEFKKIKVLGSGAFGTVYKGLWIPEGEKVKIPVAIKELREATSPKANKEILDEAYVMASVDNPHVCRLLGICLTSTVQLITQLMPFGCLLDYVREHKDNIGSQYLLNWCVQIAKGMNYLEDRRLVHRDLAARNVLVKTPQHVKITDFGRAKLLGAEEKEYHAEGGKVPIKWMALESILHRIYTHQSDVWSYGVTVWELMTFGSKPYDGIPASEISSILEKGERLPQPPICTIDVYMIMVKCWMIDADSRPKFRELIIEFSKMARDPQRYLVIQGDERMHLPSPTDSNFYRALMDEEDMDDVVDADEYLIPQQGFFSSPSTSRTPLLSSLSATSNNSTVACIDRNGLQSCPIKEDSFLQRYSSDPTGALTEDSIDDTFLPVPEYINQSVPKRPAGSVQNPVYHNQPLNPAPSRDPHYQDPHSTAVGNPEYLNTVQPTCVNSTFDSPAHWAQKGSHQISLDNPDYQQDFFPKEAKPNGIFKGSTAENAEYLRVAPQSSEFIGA

MDA-MB-231 [8] = assay: Induction of apoptosis in human MDA-MB-231 cells assessed as increase in apoptotic cells after 24 hrs in presence of lapatinib by Annexin-V-FITC/propidium iodide staining based FACS analysis; type: functional, cell-based
MDA-MB-231 [9] = assay: Induction of apoptosis in human MDA-MB-231 cells assessed as increase in apoptotic cells after 24 hrs in presence of EGFR siRNA by Annexin-V-FITC/propidium iodide staining based FACS analysis; type: functional, cell-based
MDA-MB-231 [10] = assay: Antitumor activity against human MDA-MB-231 cells xenografted in athymic BALB/c nude mouse assessed as decrease in tumor volume at 1.25 to 5 mg/kg, […] administered every two days for 28 days measured post-last dose by caliper method; type: functional, organism-based
Mus musculus [11] = assay: Down regulation of RAS expression in athymic BALB/c nude mouse xenografted with human MDA-MB-231 cells at 1.25 to 5 mg/kg, sc administered every two days for 28 days by Western blot analysis; type: functional, organism-based
Mus musculus [12] = assay: Down regulation of PI3K expression athymic BALB/c nude mouse xenografted with human MDA-MB-231 cells at 1.25 to 5 mg/kg, sc administered every two days for 28 days by Western blot analysis; type: functional, organism-based
Mus musculus [13] = assay: Down regulation of mTOR expression in athymic BALB/c nude mouse xenografted with human MDA-MB-231 cells at 1.25 to 5 mg/kg, sc administered every two days for 28 days by Western blot analysis; type: functional, organism-based
Mus musculus [14] = assay: Effect on RAF expression in athymic BALB/c nude mouse xenografted with human MDA-MB-231 cells at 1.25 to 5 mg/kg, sc administered every two days for 28 days by Western blot analysis; type: functional, organism-based
Mus musculus [15] = assay: Induction of ERK phosphorylation in athymic BALB/c nude mouse xenografted with human MDA-MB-231 cells at 1.25 to 5 mg/kg, sc administered every two days for 28 days by Western blot analysis; type: functional, organism-based
Mus musculus [16] = assay: Down regulation of AKT phosphorylation in athymic BALB/c nude mouse xenografted with human MDA-MB-231 cells at 1.25 to 5 mg/kg, sc administered every two days for 28 days by Western blot analysis; type: functional, organism-based
Mus musculus [17] = assay: Effect on MEK expression in athymic BALB/c nude mouse xenografted with human MDA-MB-231 cells at 1.25 to 5 mg/kg, sc administered every two days for 28 days by western blot analysis; type: functional, organism-based
Mus musculus [18] = assay: Effect on MEK phosphorylation in athymic BALB/c nude mouse xenografted with human MDA-MB-231 cells at 1.25 to 5 mg/kg, sc administered every two days for 28 days by western blot analysis; type: functional, organism-based
Mus musculus [19] = assay: Increase in ERK expression in athymic BALB/c nude mouse xenografted with human MDA-MB-231 cells at 1.25 to 5 mg/kg, sc administered every two days for 28 days by Western blot analysis; type: functional, organism-based

For C[C@H]1[C@H](C)CC[C@]2(C(=O)O)CC[C@]3(COC(=O)/C=C/c4ccc(O)cc4)C(=CC[C@@H]4[C@@]5(C)CC[C@H](O)C(C)(C)[C@@H]5CC[C@]43C)[C@H]12, the Activity (MDA-MB-231 [1]) was “Active”, the Activity (MDA-MB-231 [2]) was “Dose-dependent effect” and the Activity (MDA-MB-231 [3]) was 42.03%. The Activity (MDA-MB-231 [4]) was “Active”, the Activity (MDA-MB-231 [5]) was “Dose-dependent effect” and the inhibition [6] was “Active”. The inhibition [7] was “Dose-dependent effect”, the Activity (MDA-MB-231 [8]) was “inactive” and the Activity (MDA-MB-231 [9]) was “inactive”. For the same compound, the Activity (MDA-MB-231 [10]) was “Active”, the Activity (Mus musculus [11]) was “Active” and the Activity (Mus musculus [12]) was “Active”. The Activity (Mus musculus [13]) was “Active”, the Activity (Mus musculus [14]) was “inactive” and the Activity (Mus musculus [15]) was “Active”. For the same compound, the Activity (Mus musculus [16]) was “Active”, the Activity (Mus musculus [17]) was “inactive” and the Activity (Mus musculus [18]) was “inactive”. The Activity (Mus musculus [19]) was “Active”.
